Laboratory results taken from ChEMBL document CHEMBL4665900, “Novel Pyrido-pyrimidinones and Pteridinones as Endoribonuclease Inositol Requiring Enzyme 1 (IRE1α) Inhibitors for Treating Cancer” (ACS Med Chem Lett, 2020).

Target: Serine/threonine-protein kinase/endoribonuclease IRE1 (Homo sapiens, UniProt O75460)
Experiment: Inhibition of human His-tagged IRE1alpha expressed in Sf9 insect cells preincubated for 1 hr followed by Alexa fluor 647-labeled probe addition and measured after 1 hr by TR-FRET assay

Chain of Serine/threonine-protein kinase/endoribonuclease IRE1 (O75460 whole entry): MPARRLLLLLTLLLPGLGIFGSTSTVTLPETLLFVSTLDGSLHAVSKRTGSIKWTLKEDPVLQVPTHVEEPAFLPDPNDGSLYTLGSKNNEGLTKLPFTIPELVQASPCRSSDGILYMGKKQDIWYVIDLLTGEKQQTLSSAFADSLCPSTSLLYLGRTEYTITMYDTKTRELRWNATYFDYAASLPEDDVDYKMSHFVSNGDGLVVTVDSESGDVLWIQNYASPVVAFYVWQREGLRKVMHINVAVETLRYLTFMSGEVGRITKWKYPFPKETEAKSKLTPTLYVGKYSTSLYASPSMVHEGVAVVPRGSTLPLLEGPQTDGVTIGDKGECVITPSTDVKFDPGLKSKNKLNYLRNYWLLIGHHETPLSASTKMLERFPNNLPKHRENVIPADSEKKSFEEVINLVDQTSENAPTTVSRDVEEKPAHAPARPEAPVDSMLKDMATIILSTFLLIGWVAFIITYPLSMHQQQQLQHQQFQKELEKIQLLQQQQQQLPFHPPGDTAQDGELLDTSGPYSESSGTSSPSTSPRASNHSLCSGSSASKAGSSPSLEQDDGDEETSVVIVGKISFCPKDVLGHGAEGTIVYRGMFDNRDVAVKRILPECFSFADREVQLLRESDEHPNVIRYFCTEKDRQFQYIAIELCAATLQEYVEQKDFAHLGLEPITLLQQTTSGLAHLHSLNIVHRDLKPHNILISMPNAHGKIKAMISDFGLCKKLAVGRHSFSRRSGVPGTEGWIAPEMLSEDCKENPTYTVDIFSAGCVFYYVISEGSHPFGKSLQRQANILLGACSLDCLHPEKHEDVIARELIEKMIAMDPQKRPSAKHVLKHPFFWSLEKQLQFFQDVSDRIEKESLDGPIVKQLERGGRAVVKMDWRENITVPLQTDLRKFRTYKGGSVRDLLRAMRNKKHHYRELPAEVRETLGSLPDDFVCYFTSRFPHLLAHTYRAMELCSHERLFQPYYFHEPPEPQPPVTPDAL

Row | IC50 | Compound
1 | 0.05 nM | COCCN(C)[C@H]1CC[C@H](Nc2ncc3cc(-c4ccc(NS(=O)(=O)Cc5ccc(F)cc5)c(F)c4)c(=O)n(C(C)C)c3n2)CC1
2 | 0.1 nM | CC(C)n1c(=O)c(-c2ccc(NS(=O)(=O)Cc3ccc(C#N)cc3)c(F)c2)nc2cnc(N[C@@H]3CNC[C@@H](F)C3)nc21
3 | 0.09 nM | Cc1ccc(CS(=O)(=O)Nc2ccc(-c3nc4cnc(N[C@@H]5CNC[C@@H](F)C5)nc4n(C(C)C)c3=O)cc2F)c(C#N)c1
4 | 0.08 nM | CC(C)n1c(=O)c(-c2c(F)cc(NS(=O)(=O)Cc3ccc(F)cc3)cc2F)cc2cnc(N[C@H]3CC[C@H](N(C)C)CC3)nc21
5 | 0.1 nM | CC(C)n1c(=O)c(-c2cc(F)c(NS(=O)(=O)CC3(C(F)(F)F)CC3)c(F)c2)nc2cnc(N[C@H]3CC[C@H](N(C)C)CC3)nc21
6 | 0.11 nM | COc1cccc(CS(=O)(=O)Nc2c(F)cc(-c3cc4cnc(N[C@@H]5CNC[C@@H](F)C5)nc4n(C(C)C)c3=O)c(F)c2F)c1
